Assay results from publication PMC6930223 (Scientific Reports, 2019).

Key:
[1] = tested on: hERG1b protein (fg 95 kDa, cg 80 kDa); experiment: Western blot protein expression in HEK293-hERG1a/1b cells; type: cell-based, human; conditions: all concentrations, 24 h
Protocol: (§1) Total protein was isolated using RIPA lysis buffer system (Santa Cruz Biotechnology, Inc., USA). Equal amounts of protein samples were loaded onto 7.5% (v/v) polyacrylamide gels and were subsequently transferred to Immobilon®-P PVDF membrane (Millipore, USA) using Trans-Blot® Turbo™ Blotting System (Bio-Rad Laboratories, USA). Blots were blocked with 3% (w/v) skim milk for 1 h and probed with optimized primary antibodies against hERG1a (1:5000), hERG1b (1:1250), Hsp70 (1:10, 000), Hsp90 (1:5000) and β-actin (1:5000) overnight at 4 °C. Finally, the blots were then incubated in horseradish peroxidase (HRP) conjugated secondary antibody (1:1000) for 2.5 h followed by Clarity™ Western ECL substrate (Bio-Rad Laboratories, USA). The antibodies used for Western blotting were rabbit hERG1a polyclonal antibody (Enzo Life Sciences, USA), rabbit hERG1b polyclonal antibody (Enzo Life Sciences, USA), rabbit Hsc70/Hsp70 polyclonal antibody (Enzo Life Sciences, USA), rabbit Hsp90 polyclonal antibody (Enzo Life Sciences, USA), rabbit β-actin antibody (Cell Signaling, USA) and anti-rabbit IgG HRP-linked antibody (Cell Signaling, USA). Chemiluminescence signal was detected using ChemiDoc™ XRS Imaging System (Bio-Rad Laboratories, USA). Band densities were scanned and quantified using Image Lab Software (Bio-Rad Laboratories, USA). The signal for each protein band was normalized to the reference protein, β-actin. Experiments were conducted in duplicate and represented as mean fold changes of three independent experiments.

[2] = tested on: hERG1a protein (fg 155 kDa, cg 135 kDa); experiment: as above; type: cell-based, human; conditions: 24 h
Protocol: as §1

HEK293-hERG1a/1b cells = experiment: Cell proliferation assay (CellTiter 96 AQueous One), 72 h; type: cell-based, human
Protocol: Trypan blue exclusion test was carried out to determine the effect of transfection on HEK293-hERG1a/1b cell viability. Briefly, cell suspension was mixed with 0.4% (v/v) trypan blue solution in a ratio of 1:1 and the viability of the cells were analyzed using Countess® II FL automated cell counter (Invitrogen, USA). For cell proliferation assay, cells were first seeded at a density of 5000 cells/well onto two 96-well plates (T0 and T1) and were incubated at 37 °C for 24 h in a humidified incubator supplemented with 5% (v/v) CO2. Subsequently, cells in T0 plate were subjected to cell proliferation assay as described previously. Meanwhile, cells in T1 plate were cultured in reduced serum medium (0.5% v/v FBS) for 4 h and treated with various concentrations of mitragynine. After 72 h, cell proliferation was determined using CellTiter 96® AQueous One Solution Cell Proliferation Assay (Promega, USA) following manufacturer’s protocol. Cell proliferation results were expressed as percentage growth (PG)[65]. The response parameters GI50 (half maximal growth inhibitory concentration), TGI (total growth inhibition) and LC50 (half maximal lethal concentration) values were derived from a non-linear regression model (curvefit) based on dose response-inhibition curve and computed using GraphPad Prism® 5.01 (GraphPad Software, USA). The GI50, TGI and LC50 are interpolated values representing the concentrations at which the PG is +50, 0 and −50 respectively. Data are presented as mean PG for three independent experiments.

hERG1a/1b current = hERG1a/1b current (Homo sapiens, UniProt Q12809)
Protocol: All working solutions were sterile-filtered, stored at −20 °C and thawed to room temperature before use.
Prior to electrophysiology study, the HEK293-hERG1a/1b cells were first grown in complete medium without selection antibiotics for 6 days. Approximately 5.0 × 10^5 cells were then plated onto an uncoated 96-mm cell culture dish for a maximum of 3 days. […] The cell suspension was then transferred into a 15-ml polypropylene tube and centrifuged at 100 × g for 3 min. Subsequently, the cell pellet was resuspended in extracellular solution to obtain a final density of 2 × 10^6–3 × 10^6 cells/ml and incubated on ice for 20 min to allow cell recovery. The electrophysiology studies were performed using NPC®-1 chips (Nanion Technologies, Germany) and Port-a-Patch system (Nanion Technologies, Germany) following manufacturer’s instructions, within the next 2 h. For characterization and determination of the hERG1a/1b current inhibition, a series of voltage protocols were applied as published previously.
The hERG1a/1b current was recorded in cells achieving whole-cell configuration. Briefly, a single cell was first held at −80 mV, the theoretical cardiac resting membrane potential, on the aperture of the NPC-1 chip (Nanion Technologies, Germany). To characterize the I-V relationship, the cell was depolarized to test potentials ranging from −60 mV to +50 mV for 4 s in […], followed by a 5-s step to −50 mV before returning to −80mV.
To determine the pharmacological effects of the HEK293-hERG1a/1b cells, the cells were perfused with test compound solutions using an external perfusion system. […] The mean of six successive Itail was recorded for each test concentration. Four independent experiments were conducted to derive the dose-response curve.

Q: Which cg-hERG1b protein expression [1] does the source give for mitragynine here?
A: no significant changes

Q: And the fg-hERG1b protein expression [1]?
A: no significant changes

Q: And the “increase of cg-hERG1a expression” value ([2]; 10 µM, vs untreated control)?
A: ~50%

Q: And the “reduction of fg-hERG1a expression” value ([2]; 10 µM, vs untreated control)?
A: approximately 22.3%

Q: And the “expression of cg-hERG1a” value ([2]; 0.001–1 µM)?
A: unaffected

Q: What about the “protein expression of fg-hERG1a” value ([2]; 0.001–1 µM) of the same substance?
A: no clear pattern

Q: And the GI50 (HEK293-hERG1a/1b cells)?
A: 30.2 µM

Q: What about the LC50 (HEK293-hERG1a/1b cells) of the same substance?
A: 85.1 µM

Q: And the TGI (HEK293-hERG1a/1b cells)?
A: 57.68 µM

Q: And the “Hill coefficient (h)” value (hERG1a/1b current; dose-response fit of hERG1a/1b tail current inhibition)?
A: 0.61

Q: What about the IC50 (hERG1a/1b current; read-out: IC50 of hERG1a/1b current inhibition, peak tail current, step pulse protocol, HEK293-hERG1a/1b cells, four independent experiments) of the same substance?
A: 333 nM
